Columns and labels:
[1] = Plasma pharmacokinetics, non-compartmental; assay type: in vivo, human
[2] = Urinary excretion of KOS-1584 and metabolites; assay type: in vivo, human; details: MTD level, 0-24 h urine
tubulin in PBMCs = experiment: Microtubule bundle formation; assay type: in vivo, human; details: for mean percentage of MBF: RP2D
[3] = system: advanced or metastatic solid tumors; experiment: Anti-tumor activity; assay type: in vivo, human
QTcB interval = experiment: 12-lead ECG, QTcB interval; assay type: in vivo, human; details: baseline or pre- vs post-infusion ECGs, cycles 1 and 2
[4] = system: P-gp-overexpressing cell lines; details: cited from earlier work
[5] = system: paclitaxel-resistant xenografts; details: cited from earlier work
[6] = mice; cited from earlier work
[7] = KOS-1584 0.8 mg/m^2, 3 h infusion, cycle 1, N=1
[8] = KOS-1584 1.5 mg/m^2, 3 h infusion, cycle 1, N=4
[9] = KOS-1584 2.5 mg/m^2, 3 h infusion, cycle 1, N=4
[10] = KOS-1584 3.7 mg/m^2, 3 h infusion, cycle 1, N=3
[11] = KOS-1584 5.0 mg/m^2, 3 h infusion, cycle 1, N=4
[12] = KOS-1584 6.5 mg/m^2, 3 h infusion, cycle 1, N=6
[13] = KOS-1584 8.5 mg/m^2, 3 h infusion, cycle 1, N=3
[14] = KOS-1584 11.3 mg/m^2, 3 h infusion, cycle 1, N=4
[15] = KOS-1584 15.0 mg/m^2, 3 h infusion, cycle 1, N=4
[16] = KOS-1584 20.0 mg/m^2, 3 h infusion, cycle 1, N=5
[17] = KOS-1584 27 mg/m^2, 3 h infusion, cycle 1, N=4
[18] = KOS-1584 36 mg/m^2, 3 h infusion, cycle 1, N=16
[19] = KOS-1584 42 mg/m^2, 3 h infusion, cycle 1, N=6
[20] = KOS-1584 48 mg/m^2, 3 h infusion, cycle 1, N=2
[21] = all cohorts 0.8-48 mg/m^2, cycle 1

For `C/C1=C/C[C@@H](/C(C)=C/c2csc(C)n2)OC(=O)C[C@H](O)C(C)(C)C(=O)[C@H](C)[C@@H](O)[C@@H](C)/C=C/C1` [KOS-1584, (E)-9,10-didehydroepothilone D], the linearity of pharmacokinetics ([1]; 0.8-48 mg/m^2) was “linear pharmacokinetics”, the “KOS-1584 AUC” value [1, 7] was 26.7 ng·h/mL and the “KOS-1584 CL” value [1, 7] was 30.0 L/h/m^2. For the same molecule, the “KOS-1584 Cmax” value [1, 7] was 5.73 ng/mL, the “KOS-1584 Tmax” value [1, 7] was 3.0 ng/mL and the “KOS-1584 Vλ” value [1, 7] was 541 L/m^2. The “KOS-1584 t1/2” value [1, 7] was 12.5 h, the “KOS-1584 AUC” value [1, 8] was 64.9 ± 16.3 ng·h/mL and the “KOS-1584 CL” value [1, 8] was 24.6 ± 7.63 L/h/m^2. For the same molecule, the “KOS-1584 Cmax” value [1, 8] was 9.29 ± 4.16 ng/mL, the “KOS-1584 Tmax” value [1, 8] was 2.0 ± 1.2 ng/mL and the “KOS-1584 Vλ” value [1, 8] was 553 ± 146 L/m^2. For the same molecule, the “KOS-1584 t1/2” value [1, 8] was 16.0 ± 3.96 h, the “KOS-1584 AUC” value [1, 9] was 170 ± 2.21 ng·h/mL and the “KOS-1584 CL” value [1, 9] was 14.9 ± 1.95 L/h/m^2. The “KOS-1584 Cmax” value [1, 9] was 18.0 ± 5.24 ng/mL, the “KOS-1584 Tmax” value [1, 9] was 3.0 ± 0.02 ng/mL and the “KOS-1584 Vλ” value [1, 9] was 385 ± 109 L/m^2. The “KOS-1584 t1/2” value [1, 9] was 18.2 ± 6.37 h, the “KOS-1584 AUC” value [1, 10] was 359 ± 40.7 ng·h/mL and the “KOS-1584 CL” value [1, 10] was 10.4 ± 1.27 L/h/m^2. For the same molecule, the “KOS-1584 Cmax” value [1, 10] was 32.9 ± 10.8 ng/mL, the “KOS-1584 Tmax” value [1, 10] was 3.0 ± 0.06 ng/mL and the “KOS-1584 Vλ” value [1, 10] was 279 ± 60.1 L/m^2. The “KOS-1584 t1/2” value [1, 10] was 18.7 ± 3.64 h, the “KOS-1584 AUC” value [1, 11] was 468 ± 140 ng·h/mL and the “KOS-1584 CL” value [1, 11] was 11.3 ± 2.84 L/h/m^2. The “KOS-1584 Cmax” value [1, 11] was 41.9 ± 13.4 ng/mL, the “KOS-1584 Tmax” value [1, 11] was 2.61 ± 0.74 ng/mL and the “KOS-1584 Vλ” value [1, 11] was 269 ± 104 L/m^2. For the same molecule, the “KOS-1584 t1/2” value [1, 11] was 16.0 ± 2.53 h, the “KOS-1584 AUC” value [1, 12] was 566 ± 159 ng·h/mL and the “KOS-1584 CL” value [1, 12] was 12.4 ± 2.91 L/h/m^2. The “KOS-1584 Cmax” value [1, 12] was 41.9 ± 11.3 ng/mL, the “KOS-1584 Tmax” value [1, 12] was 2.49 ± 0.76 ng/mL and the “KOS-1584 Vλ” value [1, 12] was 348 ± 79.9 L/m^2. The “KOS-1584 t1/2” value [1, 12] was 19.9 ± 4.68 h, the “KOS-1584 AUC” value [1, 13] was 620 ± 317 ng·h/mL and the “KOS-1584 CL” value [1, 13] was 15.9 ± 6.34 L/h/m^2. The “KOS-1584 Cmax” value [1, 13] was 78.4 ± 28.8 ng/mL, the “KOS-1584 Tmax” value [1, 13] was 2.96 ± 0.03 ng/mL and the “KOS-1584 Vλ” value [1, 13] was 327 ± 190 L/m^2. For the same molecule, the “KOS-1584 t1/2” value [1, 13] was 13.7 ± 4.57 h, the “KOS-1584 AUC” value [1, 14] was 2,206 ± 994 ng h/mL and the “KOS-1584 CL” value [1, 14] was 6.28 ± 3.56 L/h/m^2. For the same molecule, the “KOS-1584 Cmax” value [1, 14] was 140 ± 41.9 ng/mL, the “KOS-1584 Tmax” value [1, 14] was 2.60 ± 0.68 ng/mL and the “KOS-1584 Vλ” value [1, 14] was 267 ± 197 L/m^2. For the same molecule, the “KOS-1584 t1/2” value [1, 14] was 28.5 ± 6.77 h, the “KOS-1584 AUC” value [1, 15] was 2,204 ± 946 ng h/mL and the “KOS-1584 CL” value [1, 15] was 7.69 ± 2.89 L/h/m^2. The “KOS-1584 Cmax” value [1, 15] was 220 ± 84.7 ng/mL, the “KOS-1584 Tmax” value [1, 15] was 2.97 ± 0.03 ng/mL and the “KOS-1584 Vλ” value [1, 15] was 263 ± 113 L/m^2. The “KOS-1584 t1/2” value [1, 15] was 23.5 ± 1.77 h, the “KOS-1584 AUC” value [1, 16] was 2,440 ± 945 ng h/mL and the “KOS-1584 CL” value [1, 16] was 9.28 ± 3.56 L/h/m^2. For the same molecule, the “KOS-1584 Cmax” value [1, 16] was 284 ± 153 ng/mL, the “KOS-1584 Tmax” value [1, 16] was 2.38 ± 0.80 ng/mL and the “KOS-1584 Vλ” value [1, 16] was 288 ± 165 L/m^2. The “KOS-1584 t1/2” value [1, 16] was 20.2 ± 8.15 h, the “KOS-1584 AUC” value [1, 17] was 3,190 ± 1,490 ng h/mL and the “KOS-1584 CL” value [1, 17] was 10.1 ± 5.00 L/h/m^2. The “KOS-1584 Cmax” value [1, 17] was 259 ± 110 ng/mL, the “KOS-1584 Tmax” value [1, 17] was 3.10 ± 0.27 ng/mL and the “KOS-1584 Vλ” value [1, 17] was 434 ± 339 L/m^2. The “KOS-1584 t1/2” value [1, 17] was 27.8 ± 9.08 h, the “KOS-1584 AUC” value [1, 18] was 5,267 ± 3,190 ng h/mL and the “KOS-1584 CL” value [1, 18] was 8.98 ± 4.59 L/h/m^2. The “KOS-1584 Cmax” value [1, 18] was 701 ± 425 ng/mL, the “KOS-1584 Tmax” value [1, 18] was 2.67 ± 0.58 ng/mL and the “KOS-1584 Vλ” value [1, 18] was 329 ± 134 L/m^2. For the same molecule, the “KOS-1584 t1/2” value [1, 18] was 27.9 ± 10.6 h, the “KOS-1584 AUC” value [1, 19] was 7,355 ± 4,718 ng h/mL and the “KOS-1584 CL” value [1, 19] was 8.52 ± 5.43 L/h/m^2. The “KOS-1584 Cmax” value [1, 19] was 1,066 ± 513 ng/mL, the “KOS-1584 Tmax” value [1, 19] was 2.95 ± 0.04 ng/mL and the “KOS-1584 Vλ” value [1, 19] was 277 ± 165 L/m^2. For the same molecule, the “KOS-1584 t1/2” value [1, 19] was 24.1 ± 9.37 h, the “KOS-1584 AUC” value [1, 20] was 4,727 ± 167 ng h/mL and the “KOS-1584 CL” value [1, 20] was 10.1 ± 0.27 L/h/m^2. The “KOS-1584 Cmax” value [1, 20] was 769 ± 42.4 ng/mL, the “KOS-1584 Tmax” value [1, 20] was 2.92 ± 0.0 ng/mL and the “KOS-1584 Vλ” value [1, 20] was 349 ± 205 L/m^2. The “KOS-1584 t1/2” value [1, 20] was 24.1 ± 14.7 h, the mean overall clearance [1, 21] was 11 ± 6.17 L/h/m^2 and the “mean overall half-life of KOS-1584” value [1, 21] was 21.9 ± 8.75 h. The “mean overall volume of distribution” value [1, 21] was 327 ± 161 L/m^2, the accumulation ([1]; every 3 weeks dosing, cycles 1 and 2) was “no accumulation” and the “Urinary excretion of unchanged KOS-1584” value [2] was < 10 % of drug-related materials. For the same molecule, the “mean percentage of MBF” value (tubulin in PBMCs; 1 h after infusion) was 50%, the “mean percentage of MBF” value (tubulin in PBMCs; 24 h after infusion) was 26% and the “E0 of MBF” value (tubulin in PBMCs; sigmoidal maximum effect model) was 3.69%. The “EC50 of plasma concentration for MBF” value (tubulin in PBMCs; sigmoidal maximum effect model) was 0.0241 µg/mL, the “Emax of MBF” value (tubulin in PBMCs; sigmoidal maximum effect model) was 52.7% and the “patients with durable SD of ≥3 months” value ([3]; 66 patients) was 13 patients. The “patients with objective partial response (PR)” value ([3]; 66 patients, 0.8-48 mg/m^2) was “Two”, the “disease control rate (CR + PR + SD)” value ([3]; all patients) was 39% and the “effect on QTcB interval” value (QTcB interval) was “did not show any effects”. The “potency relative to paclitaxel” value [4] was “more potent than paclitaxel”, the anti-tumor activity [5] was “anti-tumor activity has been demonstrated” and the “penetration of the BBB” value [6] was “did penetrate the BBB”.

Reference: PMC3865603 (Cancer chemotherapy and pharmacology, 2011)
